Literature values, collected in US20060078541A1, “Method and formula for stem cells' stimulation, targeting release, trafficking and homing” (priority 2004, published 2006).

Details: in vivo

In the case of `[Cs+]` [Cesium ions], the biological half life (human) is given as 50-60 days and the assimilated is given as roughly 100%.
